# Assay results published in patent US12398151B2, “Sumo inhibitor compounds and uses thereof” (SUVALENT THERAPEUTICS, INC., priority 2019, dated 2025).
# Where two headings read alike, the source gives them in different places.
# Experiments:
# [1] = target: T1, SUMO E1 (Homo sapiens, UniProt Q9UBT2); test: SUMO E1 inhibition: UBC9-SUMO1 conjugation by SDS gel electrophoresis; format: biochemical; settings: read-out: SUMO E1 percent inhibition of adduct formation; for inhibition at 25 µM: 25 uM compound; for inhibition at 10 µM: 10 uM compound; for inhibition at 1 µM: 1 uM compound; for inhibition at 27 µM: 27 uM compound; for inhibition at 9 µM: 9 uM compound, 15 min preincubation
# T1 sequence (Q9UBT2 1-640): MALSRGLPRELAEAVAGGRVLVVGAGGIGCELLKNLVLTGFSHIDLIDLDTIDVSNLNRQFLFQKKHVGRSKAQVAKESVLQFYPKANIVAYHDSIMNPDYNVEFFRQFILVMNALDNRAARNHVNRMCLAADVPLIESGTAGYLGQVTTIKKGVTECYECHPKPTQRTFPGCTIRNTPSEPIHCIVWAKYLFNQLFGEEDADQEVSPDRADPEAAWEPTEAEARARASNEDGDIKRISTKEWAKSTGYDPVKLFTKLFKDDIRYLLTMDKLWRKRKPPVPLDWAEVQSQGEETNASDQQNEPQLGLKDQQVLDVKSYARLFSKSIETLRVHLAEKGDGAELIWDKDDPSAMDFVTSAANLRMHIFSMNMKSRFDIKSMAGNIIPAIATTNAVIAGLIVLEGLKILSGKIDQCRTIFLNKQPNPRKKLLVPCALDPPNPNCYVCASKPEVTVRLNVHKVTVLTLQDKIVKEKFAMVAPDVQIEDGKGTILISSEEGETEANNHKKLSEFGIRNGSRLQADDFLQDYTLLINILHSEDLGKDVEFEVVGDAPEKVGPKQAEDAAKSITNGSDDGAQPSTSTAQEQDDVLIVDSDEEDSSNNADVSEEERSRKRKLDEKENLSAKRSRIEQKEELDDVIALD
# T1 sequence (Q9UBE0 1-346 partner): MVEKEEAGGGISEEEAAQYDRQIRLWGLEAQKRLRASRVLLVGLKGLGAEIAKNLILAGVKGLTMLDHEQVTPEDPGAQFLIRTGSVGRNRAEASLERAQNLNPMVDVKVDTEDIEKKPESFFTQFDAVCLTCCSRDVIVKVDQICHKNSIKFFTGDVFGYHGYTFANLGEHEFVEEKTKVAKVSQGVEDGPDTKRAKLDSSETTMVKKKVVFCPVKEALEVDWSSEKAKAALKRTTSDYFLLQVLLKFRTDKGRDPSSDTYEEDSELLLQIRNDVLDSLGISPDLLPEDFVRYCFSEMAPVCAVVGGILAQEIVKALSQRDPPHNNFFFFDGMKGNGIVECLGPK
# Method: (§1) Compounds are evaluated for their inhibitory effect on activating enzymes (E1) of ubiquitin, SUMO, Nedd8, Urm1, ISG15 or Atg7 using previously reported methods and protocols. One example is in: Allosteric inhibition of ubiquitin-like modifications by a class of inhibitor of SUMO-activating enzyme. Cell Chemical Biology, 26, 1-11, 2019. PMID: 28051857.
# (§2) Compounds are tested in the following manner. The compound and SUMO E1 are incubated for a predetermined amount of time. UBC9, SUMO1, and ATP are added to the E1-compound mixture and incubated at 37° C. The reaction is quenched with Laemmli Buffer. The UBC9-SUMO1 conjugation is analyzed via SDS gel electrophoresis. The percent inhibition is measured by the intensity of the UBC9-SUMO1 band compared to the no compound control. Activities are listed as compound concentration (uM), preincubation time of E1 with compound (min), and percent inhibition of adduct formation (%). […]
# [2] = target: T2, Atg7 (Homo sapiens, UniProt O95352); test: Atg7 activating enzyme (E1) inhibition; format: biochemical; settings: 25 uM compound, 60 min preincubation; read-out: Atg7 percent inhibition of adduct formation
# T2 sequence (O95352 1-703): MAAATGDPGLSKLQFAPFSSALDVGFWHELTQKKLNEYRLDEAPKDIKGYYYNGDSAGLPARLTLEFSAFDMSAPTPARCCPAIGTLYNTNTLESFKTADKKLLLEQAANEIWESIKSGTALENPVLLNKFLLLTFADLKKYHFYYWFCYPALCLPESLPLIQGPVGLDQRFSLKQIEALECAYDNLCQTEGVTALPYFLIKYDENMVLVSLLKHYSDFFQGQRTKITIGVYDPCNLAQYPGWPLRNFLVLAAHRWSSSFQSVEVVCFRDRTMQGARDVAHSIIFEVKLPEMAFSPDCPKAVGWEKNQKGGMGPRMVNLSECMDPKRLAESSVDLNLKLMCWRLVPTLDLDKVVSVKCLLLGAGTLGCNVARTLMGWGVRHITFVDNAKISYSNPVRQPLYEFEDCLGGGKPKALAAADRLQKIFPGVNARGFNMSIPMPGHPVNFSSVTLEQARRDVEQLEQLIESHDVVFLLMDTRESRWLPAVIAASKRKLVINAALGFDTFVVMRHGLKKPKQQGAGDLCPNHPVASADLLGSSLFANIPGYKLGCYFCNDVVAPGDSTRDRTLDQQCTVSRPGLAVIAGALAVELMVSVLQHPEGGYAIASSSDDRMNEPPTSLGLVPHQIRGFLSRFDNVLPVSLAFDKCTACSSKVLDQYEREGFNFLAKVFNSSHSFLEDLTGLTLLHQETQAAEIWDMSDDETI
# Method: as §1, §2
# [3] = 55 min preincubation of E1 with compound
inhibition at 25 µM ([1]; 60 min preincubation),inhibition at 25 µM [2],SMILES,also measured
–,< 1%,C=CC(=O)N1Cc2ccccc2[C@@H](c2ccccc2)C1 (stereo in doubt) [Compound 11],inhibition at 10 µM ([1]; 60 min preincubation): 90%
–,< 1%,C=CC(=O)N1CCc2c(Br)cccc2C1 [Compound 1],"inhibition at 25 µM [1, 3]: 50%"
–,< 1%,C=CC(=O)N1CCc2cc(Br)ccc21 [Compound 4],inhibition at 25 µM ([1]; 30 min preincubation): 10%
–,< 1%,C=CC(=O)N1CCc2cc(Cc3ccccc3)ccc2C1 [Compound 7],inhibition at 25 µM ([1]; 30 min preincubation): 20%
< 1%,< 1%,C=CC(=O)N1CCC2CCCCC2C1 (stereo not drawn) [Compound 12],–
20%,< 1%,C=CC(=O)N1Cc2ccc(NC(=O)c3cccnc3)cc2C1 [Compound 16],–
< 1%,95%,C=CC(=O)N1CCc2cc(CC3CCOCC3)ccc2C1 [Compound 18],–
< 1%,< 1%,CCC(=O)Nc1ccc2cc(Br)ccc2c1 [Compound 25],–
90%,< 1%,C=CC(=O)N1Cc2ccc(Br)cc2[C@@H](c2ccccc2)C1 [Compound 29],–
< 1%,< 1%,C=CC(=O)N1Cc2ccccc2[C@@H](c2cccc(OC)c2)C1 [Compound 35],–
40%,< 1%,COC(=O)/C=C/C(=O)N1Cc2ccccc2[C@@H](c2ccccc2)C1 [Compound 37],–

# Further lines, the molecule ahead of its results:
SMILES,inhibition at 25 µM ([1]; 60 min preincubation),inhibition at 25 µM [2],also measured
C=CC(=O)N1CCc2ccccc2[C@@H]1c1ccccc1 (stereo in doubt) [Compound 10],< 1%,< 1%,–
C=CC(=O)N1CCc2ccc(Br)cc2C1 [Compound 2],–,< 1%,"inhibition at 25 µM [1, 3]: 50%"
C=CC(=O)N1CCc2cc(Br)ccc2C1 [Compound 3],70%,< 1%,–
C=CC(=O)N1CCc2ncncc2C1 [Compound 5],–,< 1%,inhibition at 25 µM ([1]; 30 min preincubation): 10%
C=CC(=O)N1CCc2cc(-c3ccccc3)ccc2C1 [Compound 6],–,< 1%,inhibition at 25 µM ([1]; 30 min preincubation): < 1%
C=CC(=O)N1CCc2cc(Nc3ccccc3)ccc2C1 [Compound 8],< 1%,< 1%,–
C=CC(=O)N1Cc2ccc(Br)cc2C1 [Compound 9],< 1%,< 1%,–
C=CC(=O)N1Cc2ccccc2C1 [Compound 13],< 1%,< 1%,–
C=CC(=O)N1Cc2ccc(N)cc2C1 [Compound 14],< 1%,< 1%,–
C=CC(=O)N1Cc2ccc(NC(=O)c3ccc(F)cc3)cc2C1 [Compound 15],< 1%,< 1%,–
C=CC(=O)N1Cc2ccc(NS(=O)(=O)c3ccccc3)cc2C1 [Compound 17],20%,< 1%,–
C=CC(=O)N1CCc2cc(CC(C)C)ccc2C1 [Compound 19],40%,< 1%,–
C=CC(=O)N1CCCc2cc(Br)ccc21 [Compound 20],< 1%,< 1%,–
C=CC(=O)N1CCc2cccc(Br)c2C1 [Compound 21],< 1%,< 1%,–
C=CC(=O)N1CCc2cc(Cc3ccc(OC)cc3)ccc2C1 [Compound 23],< 1%,< 1%,–
C=CC(=O)N1CCc2cc(Oc3ccccc3)ccc2C1 [Compound 24],50%,< 1%,–
C=CC(=O)N1Cc2ccccc2C[C@H]1c1ccccc1 [Compound 26],10%,< 1%,–
C=CC(=O)N1Cc2ccccc2[C@@H](C(=O)OC)C1 [Compound 27],< 1%,< 1%,–

SMILES,inhibition at 25 µM ([1]; 60 min preincubation),inhibition at 25 µM [2],also measured
C=CC(=O)N1Cc2ccccc2[C@@H](c2ccccc2)C1 [Compound 28],< 1%,–,–
C=CC(=O)N1Cc2ccc(Oc3ccccc3)cc2[C@@H](c2ccccc2)C1 [Compound 30],< 1%,< 1%,–
C=CC(=O)N1Cc2ccc(Oc3cccnc3)cc2[C@@H](c2ccccc2)C1 [Compound 31],< 1%,< 1%,–
C=CC(=O)N1Cc2ccccc2[C@@H](C(=O)Nc2ccccc2)C1 [Compound 32],< 1%,< 1%,–
CCOC(=O)/C=C/CN1Cc2ccccc2[C@@H](c2ccccc2)C1 [Compound 33],< 1%,–,–
C=CC(=O)N1Cc2cc(OC)ccc2[C@@H](c2ccc(Cl)cc2)C1 [Compound 34],< 1%,< 1%,–
C=CC(=O)N1Cc2cc(OCC)ccc2[C@@H](c2ccccc2)C1 [Compound 36],40%,< 1%,–
C=CC(=O)Oc1cccc([C@H]2CN(C(=O)C=C)Cc3ccccc32)c1 [Compound 44],–,–,"inhibition at 18 µM ([1]; 18 uM compound, 30 min preincubation): 50%"
C=CC(=O)Oc1cccc([C@H]2CN(C(C)=O)Cc3ccccc32)c1 [Compound 50],–,–,inhibition at 10 µM ([1]; 60 min preincubation): 50%
C=CC(=O)N1Cc2sc(C)cc2[C@@H](c2ccccc2)C1 [Compound 81],–,–,inhibition at 10 µM ([1]; 30 min preincubation): 30%
C=CC(=O)N1Cc2sc(Cl)cc2[C@@H](C2CCCCC2)C1 [Compound 124],–,–,inhibition at 1 µM ([1]; 30 min preincubation): 100%
C=CC(=O)N1Cc2sc(Cl)cc2[C@@H](C2CCCC2)C1 [Compound 125],–,–,inhibition at 27 µM ([1]; 30 min preincubation): 100%
C=CC(=O)N1Cc2sc(Cl)cc2[C@@H](Cc2ccccc2)C1 [Compound 126],–,–,inhibition at 27 µM ([1]; 20 min preincubation): 40%
Cc1ccccc1[C@H]1CN(C(=O)/C=C/CBr)Cc2sc(Cl)cc21 [Compound 131],–,–,inhibition at 9 µM [1]: < 1%
C=CC(=O)N1Cc2sc(Cl)cc2[C@@H](c2ccccc2CC)C1 [Compound 144],–,–,inhibition at 27 µM ([1]; 30 min preincubation): 95%
C=CC(=O)N1Cc2sc(Cl)cc2[C@@H](c2cccc(C)c2C)C1 [Compound 149],–,–,inhibition at 1 µM ([1]; 30 min preincubation): 90%
C=CC(=O)N1Cc2sc(Cl)cc2[C@@H](c2ccccc2-c2ccccc2C(F)(F)F)C1 [Compound 156],–,–,inhibition at 9 µM [1]: < 1%
C=CC(=O)N1Cc2sc(Cl)cc2[C@@H](c2ccccc2Br)C1 [Compound 158],–,–,"inhibition at 16 µM ([1]; 16 uM compound, 45 min preincubation): < 1%"
